In patent publication US7208517B1, “Endothelin antagonists” (Abbott Labortories, priority 1994, dated 2007):

Each compound was assayed against T1, ETA Receptor (Rattus norvegicus, UniProt P26684) (assay: [125I]ET-1 binding to membranes from MMQ cells (ETA receptor binding assay, Table 4)). Settings: test compound at 1 μM; 0.1 nM [125I]ET-1, MMQ cell membranes, 4 hours at 25° C.
T1 construct: endogenous in cells; host or cells: MMQ rat pituitary cells (membranes)
T1 sequence (P26684 21-426): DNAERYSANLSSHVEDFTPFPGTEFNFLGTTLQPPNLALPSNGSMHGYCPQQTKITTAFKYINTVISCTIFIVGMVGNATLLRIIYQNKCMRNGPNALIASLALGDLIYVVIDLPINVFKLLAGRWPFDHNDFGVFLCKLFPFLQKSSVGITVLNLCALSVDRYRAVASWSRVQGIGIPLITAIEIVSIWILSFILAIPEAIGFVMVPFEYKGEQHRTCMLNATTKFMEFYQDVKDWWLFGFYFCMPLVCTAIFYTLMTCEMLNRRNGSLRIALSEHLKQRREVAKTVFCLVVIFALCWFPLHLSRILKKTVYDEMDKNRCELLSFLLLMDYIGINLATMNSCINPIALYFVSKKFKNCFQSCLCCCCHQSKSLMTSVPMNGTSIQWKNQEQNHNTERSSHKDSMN
Experimental: Preparation of Membranes from MMQ Cells:
MMQ [MacLeod/MacQueen/Login cell line (prolactin secreting rat pituitary cells)] cells from 150 mL culture flasks were collected by centrifugation (1000×g for 10 min) and then homogenized in 25 mL of 10 mM Hepes (pH 7.4) containing 0.25 M sucrose and protease inhibitors [3 mM EDTA, 0.1 mM PMSF, and 5 μg/mL Pepstatin A] by a micro ultrasonic cell disrupter (Kontes). The mixture was centrifuged at 1000×g for 10 min. The supernatant was collected and centrifuged at 60,000×g for 60 min. The precipitate was resuspended in 20 mM Tris, pH 7.4 containing the above protease inhibitors and centrifuged again. The final pellet was resuspended in 20 mM Tris, pH 7.4 containing protease inhibitors and stored at −80° C. until used. Protein content was determined by the Bio-Rad dye-binding protein assay.
Binding assays were performed in 96-well microtiter plates pretreated with 0.1% BSA. […] After incubation, unbound ligands were separated from bound ligands by a vacuum filtration method using glass-fiber filter strips in PHD cell harvesters (Cambridge Technology, Inc., MA), followed by washing the filter strips with saline (1 mL) for three times. Nonspecific binding was determined in the presence of 1 μM ET-1.

SMILES | % Inhibition of ETA at 1 μM [%]
COc1ccc(C2C(C(=O)O)C(c3ccc4c(c3)OCO4)CN2CCc2ccccn2)cc1 (stereo not drawn) [Example 7, trans,trans-2-(4-Methoxyphenyl)-4-(1,3-benzodioxol-5-yl)-1-[2-(2-pyridyl)ethyl]-pyrrolidine-3-carboxylic acid] | 63.4
CC[S+]([O-])CCN1CC(c2ccc3c(c2)OCO3)C(C(=O)O)C1c1ccc(OC)cc1 (stereo not drawn) [Example 57, trans,trans-2-(4-Methoxyphenyl)-4-(1,3-benzodioxol-5-yl)-1-(2-(ethylsulfinyl)ethyl)-pyrrolidine-3-carboxylic acid] | 93.2
CCCCNC(=O)N1CC(c2ccc3c(c2)OCO3)C(C(=O)O)C1c1ccc(OC)cc1 (stereo not drawn) [Example 9, trans,trans-2-(4-Methoxyphenyl)-4-(1,3-benzodioxole-5-yl)-1-(butylaminocarbonyl)-pyrrolidine-3-carboxylic acid] | 69.2
CCC1CCCCN1C(=O)CN1CC(c2ccc3c(c2)OCO3)C(C(=O)O)C1c1ccc(OC)cc1 (stereo not drawn) [Example 302, trans—trans-2-(4-Methoxyphenyl)-4-(1,3-benzodioxol-5-yl)-1-[2-ethylpiperidinyl-carbonylmethyl]-pyrrolidine-3-carboxylic acid] | 86.6
CCCCCS(=O)(=O)N(CCC)CCN1CC(c2ccc3c(c2)OCO3)C(C(=O)O)C1c1ccc(OC)cc1 (stereo not drawn) [Example 299, trans,trans-2-(4-Methoxyphenyl)-4-(1,3-benzodioxol-5-yl)-1-(2-(N-propyl-N-n-pentanesulfonylamino)ethyl)-pyrrolidine-3-carboxylic acid] | 90.4
CCCCCCS(=O)(=O)N(CCC)CCN1CC(c2ccc3c(c2)OCO3)C(C(=O)O)C1c1ccc(OC)cc1 (stereo not drawn) [Example 306, trans,trans-2-(4-Methoxyphenyl)-4-(1,3-benzodioxol-5-yl)-1-(2-(N-propyl-N-hexanesulfonylamino)ethyl)-pyrrolidine-3-carboxylic acid] | 93.3
CCCCCN(C)C(=O)CN1CC(c2ccc3c(c2)OCO3)C(C(=O)O)C1c1ccc(OC)cc1 (stereo not drawn) [Example 39, trans,trans-2-(4-Methoxyphenyl)-4-(1,3-benzodioxol-5-yl)-1-(N-methyl-N-pentylaminocarbonylmethyl)-pyrrolidine-3-carboxylic acid] | 83.6
CCCCN(CCCC)C(=O)CN1CC(c2ccc3c(c2)OCO3)C(C(=O)O)C1C1CCC(OC)CC1 (stereo not drawn) [Example 160B, trans,trans-1-(N,N-Di(n-butyl)aminocarbonylmethyl)-2-(anti-4-methoxycyclohexyl)-4-(1,3-benzodioxol-5-yl)pyrrolidine-3-carboxylic acid] | 80.3
CCCN(CCN1CC(c2ccc3c(c2)OCO3)C(C(=O)O)C1c1ccc(OC)cc1)C(=O)N(C)C (stereo not drawn) [Example 297, trans—trans-2-(4-Methoxyphenyl)-4-(1,3-benzodioxol-5-yl)-1-[2-(N-propyl-N-dimethylaminocarbonylamino)ethyl]-pyrrolidine-3-carboxylic acid] | 84.4
CCCN(CCN1CC(c2ccc3c(c2)OCO3)C(C(=O)O)C1c1ccc(OC)cc1)S(=O)(=O)CCCCl (stereo not drawn) [Example 124, trans,trans-1-(2-(N-Propyl-N-(3-chloropropylsulfonyl)amino)ethyl)-2-(4-methoxyphenyl)-4-(1,3-benzodioxol-5-yl)pyrrolidine-3-carboxylic acid] | 91.0
CCCCN(CCCC)C(=O)CN1CC(c2ccc(F)c(F)c2)C(C(=O)O)C1c1ccc(OC)cc1 (stereo not drawn) [Example 150, trans,trans-1-(N,N-Di(n-butyl)aminocarbonylmethyl)-2-(4-methoxyphenyl)-4-(3,4-difluorophenyl)pyrrolidine-3-carboxylic acid] | 93.6
CCCN(CCN1C[C@H](c2ccc3c(c2)OCO3)[C@@H](C(=O)O)[C@@H]1c1ccc(OC)cc1)S(=O)(=O)N(C)C (relative stereo) [Example 315, trans,trans-2-(4-Methoxyphenyl)-4-(1,3-benzodioxol-5-yl)-1-(2-(N-propyl-N-dimethylsulfamoylamino)ethyl)-pyrrolidine-3-carboxylic acid] | 82.7
CCCN(C)C(=O)CN1CC(c2ccc(OC)c(OC)c2)C(C(=O)O)C1c1ccc(OC)cc1 (stereo not drawn) [Example 54, trans,trans-2-(4-Methoxyphenyl)-4-(3,4-dimethoxyphenyl)-1-(N-methyl-N-propyl)aminocarbonylmethyl)-pyrrolidine-3-carboxylic acid] | 64.6
CCCCN(CCCC)C(=O)CN1CC(c2ccc3c(c2)OCO3)C(C(=O)O)C1c1ccccc1 (stereo not drawn) [Example 152, trans,trans-1-(N,N-Di(n-butyl)aminocarbonylmethyl)-2-phenyl-4-(1,3-benzodioxol-5-yl)pyrrolidine-3-carboxylic acid] | 86.9
COc1ccc(C2C(C(=O)O)C(c3ccc4c(c3)OCO4)CN2CCOc2ccccc2)cc1 (stereo not drawn) [Example 21, trans,trans-2-(4-Methoxyphenyl)-4-(1,3-benzodioxol-5-yl)-1-(2-phenoxyethyl)-pyrrolidine-3-carboxylic acid] | 56.3
CCCCN(CCCC)C(=O)CN1CC(c2ccc3c(c2)OCO3)C(C(=O)O)C1c1ccc(C(C)(C)C)cc1 (stereo not drawn) [Example 158, trans,trans-1-(N,N-Di(n-butyl)aminocarbonylmethyl)-2-(4-t-butylphenyl)-4-(1,3-benzodioxol-5-yl)pyrrolidine-3-carboxylic acid] | 91.8
CCCCN(CCCC)C(=O)CN1CC(c2ccc3c(c2)OCO3)C(C(=O)O)C1[C@H]1CC[C@H](OC)CC1 (stereo partly drawn) [Example 161, trans,trans-1-(N,N-Di(n-butyl)aminocarbonylmethyl)-2-(syn-4-methoxycyclohexyl)-4-(1,3-benzodioxol-5-yl)pyrrolidine-3-carboxylic acid] | 93.6
CCCN(CCN1CC(c2ccc3c(c2)OCO3)C(C(=O)O)C1c1ccc(OC)cc1)S(=O)(=O)Cc1ccccc1 (stereo not drawn) [Example 133, trans,trans-1-(2-(N-Propyl-N-(benzylsulfonyl)amino)ethyl)-2-(4-methoxyphenyl)-4-(1,3-benzodioxol-5-yl)pyrrolidine-3-carboxylic acid] | 88.6
CCCCCS(=O)(=O)N(CCC)CCN1CC(c2ccc3c(c2)OCO3)C(C(=O)O)C1CCC (stereo not drawn) [Example 314, trans,trans-2-(Propyl)-4-(1,3-benzodioxol-5-yl)-1-(2-(N-propyl-pentanesulfonylamino)ethyl)pyrrolidine-3-carboxylic acid] | 86.0
CCCCCC1C(C(=O)O)C(c2ccc3c(c2)OCO3)CN1CC(=O)N(CCCC)CCCC (stereo not drawn) [Example 92C, trans,trans-2-(Pentyl)-4-(1,3-benzodioxol-5-yl)-1-(N,N-di(n-butyl)aminocarbonylmethyl)pyrrolidine-3-carboxylic acid] | 107.4
CCCN(CCN1CC(c2ccc3c(c2)OCO3)C(C(=O)O)C1c1ccc(OC)cc1)S(=O)(=O)CCOC (stereo not drawn) [Example 125, trans,trans-1-(2-(N-Propyl-N-(2-methoxyethylsulfonyl)amino)ethyl)-2-(4-methoxyphenyl)-4-(1,3-benzodioxol-5-yl)pyrrolidine-3-carboxylic acid] | 97.2
CCCCN(CCCC)C(=O)CN1CC(c2ccc3c(c2)CCO3)C(C(=O)O)C1c1ccc2c(c1)CCO2 (stereo not drawn) [Example 162B, trans,trans-1-(N,N-Di(n-butyl)aminocarbonylmethyl)-2,4-di(5-benzo-2,3-dihydrofuranyl)pyrrolidine-3-carboxylic acid] | 91.5

Same assay, conditions: test compound at 1 μM; 0.1 nM [125I]ET-1, MMQ cell membranes, 4 hours at 25° C.; read-out: % Inhibition of ETA at 1 μM

SMILES | inhibition at 1 µM [%]
COc1ccc(C2C(C(=O)O)C(c3ccc4c(c3)OCO4)CN2CC(=O)Nc2ccccc2)cc1 (stereo not drawn) [Example 495] | 95.9
CCC[C@H](C(=O)N(CCC)CCC)N1C[C@@H](c2ccc3c(c2)OCO3)[C@@H](C(=O)O)[C@@H]1c1ccc(OC)cc1 [Example 75C, (2R,3R,4R)-2-(4-Methoxyphenyl)-4-(1,3-benzodioxol-5-yl)-1-((1R)-1-(N,N-dipropylaminocarbonyl)-1-butyl)pyrrolidine-3-carboxylic acid] | 95.3
